The results in this text go back to ChEMBL document CHEMBL1287791, “In silico identification and biochemical evaluation of novel inhibitors of NRH:quinone oxidoreductase 2 (NQO2)” (Bioorg Med Chem Lett, 2010).

Test [1] addresses T1, Ribosyldihydronicotinamide dehydrogenase [quinone] (Homo sapiens) (UniProt P16083).
T1 sequence (whole entry): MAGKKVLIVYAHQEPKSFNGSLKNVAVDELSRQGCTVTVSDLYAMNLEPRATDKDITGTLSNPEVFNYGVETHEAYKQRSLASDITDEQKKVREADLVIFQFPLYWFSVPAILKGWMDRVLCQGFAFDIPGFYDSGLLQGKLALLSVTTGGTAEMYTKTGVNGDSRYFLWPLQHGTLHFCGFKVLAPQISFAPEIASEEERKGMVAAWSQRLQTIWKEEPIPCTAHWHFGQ
The test can be described thus: Inhibition of human recombinant NQO2 at 100 uM.

Test [2] has as its target NAD(P)H dehydrogenase [quinone] 1 (Homo sapiens, UniProt P15559). The test can be described thus: Inhibition of human recombinant NQO1.
Test [3] addresses T2, Ribosyldihydronicotinamide dehydrogenase [quinone] (Homo sapiens, UniProt P16083).
T2 sequence (P16083 whole entry): T1 sequence (whole entry)
The test can be described thus: Inhibition of human recombinant NQO2.

One may read the pIC50 as −log10 of the IC50, conventionally taken in molar units.

Molecules are shown by their SMILES. pIC50: −log10 of the molar value. Activity calls are given as the source filed them. No rule for the calls is given here.

NAD(P)H dehydrogenase [quinone] 1, sequence (P15559 whole entry): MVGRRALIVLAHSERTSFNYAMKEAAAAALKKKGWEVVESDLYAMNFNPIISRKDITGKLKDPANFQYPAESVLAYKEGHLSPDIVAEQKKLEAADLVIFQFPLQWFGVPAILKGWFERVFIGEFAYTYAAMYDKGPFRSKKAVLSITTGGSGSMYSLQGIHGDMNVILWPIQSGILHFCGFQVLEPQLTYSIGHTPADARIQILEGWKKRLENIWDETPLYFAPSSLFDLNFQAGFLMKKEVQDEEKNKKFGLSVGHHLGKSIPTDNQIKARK

As for `C(=N\c1ccc(-c2cc(-c3ccccc3)nc3ccc4ccccc4c23)cc1)/c1ccccc1`, in test [1], the inhibition entry is “inactive”. With `Oc1ccccc1C(=NNc1ccccc1)c1ccccc1O`, the negative logarithm of the IC50 (pIC50) in test [2] is 5.52; in test [3], 5.41. In the case of `Cc1nc(-n2nc(-c3ccccc3)cc2-c2ccccc2)sc1C(=O)/C=C/c1ccc([N+](=O)[O-])cc1`, the negative logarithm of the IC50 (pIC50) in test [3] is 5.22.

On to `C#CCN(Cc1ccc2nc(-c3ccccc3)c(Cl)nc2c1)c1cc(OC)c(OC)c(OC)c1`, for which the inhibition entry in test [1] was “inactive”.

In the case of `c1ccc(/N=C2\SC(=NNc3ccccc3)S\C2=N/c2ccccc2)cc1`, the inhibition result in test [1] is “inactive”. For the molecule `C(=N\NC1=NCCN1)/c1c2ccccc2c(/C=N/NC2=NCCN2)c2ccccc12`, in test [1], the inhibition entry is “inactive”. Consider `CN(CCc1ccccn1)c1ccc2c(c1)Cc1ccccc1-2`, for which the inhibition entry in test [1] was “inactive”.

Consider `COc1cc(NC(C)CCCN)c2ncccc2c1` (stereo not drawn) [PRIMAQUINE], for which the negative logarithm of the IC50 (pIC50) in test [3] is 5.12. Also, in test [1], the inhibition result is “inactive”.

In the case of `O=[N+]([O-])c1ccc(/C=C/c2cc(-c3ccccc3)nc3ccc4ccccc4c23)cc1`, the negative-log IC50 (pIC50) in test [3] is 5.02. Moreover, the inhibition entry in test [1] is “inactive”. For the molecule `CCN(CC)Cc1cc(Nc2c3ccccc3nc3c4ccccc4n(C)c23)ccc1O`, in test [3], the negative-log IC50 (pIC50) is 5.46. In addition, the inhibition entry in test [1] is “inactive”. The like results for `CCN1/C(=C/c2ccc3ccccc3[n+]2CC)C=Cc2ccccc21` were, in that order, 5.57 and “inactive”.

For the molecule `Cc1cc2c(ccc3c2ccc[n+]3C)[nH]1`, the negative-log IC50 (pIC50) in test [3] is 5.68. Besides, the inhibition entry in test [1] is “inactive”. Consider `Cc1nc(-n2nc(-c3ccccc3)cc2-c2ccccc2)sc1C(=O)/C=C/c1ccc(Cl)cc1`, for which the negative-log IC50 (pIC50) in test [3] is 5.28. As for `N/N=c1\c2ccccc2c2ccc3c4ccccc4/c(=N\N)c3c12`, in test [1], the inhibition result is “inactive”.

As to `N=C(N)c1ccc(/N=N/c2c(O)c(C(=O)Nc3ccccc3)cc3ccccc23)cc1`, the pIC50 in test [3] is 5.22. The inhibition result in test [1] is “inactive”. Consider `O=C(C(=O)c1cc(-c2ccccc2)nc2ccc3ccccc3c12)c1ccccc1`, for which the inhibition result in test [1] was “inactive”. For `CN1CC(c2ccccc2)=CC2=C1C=CC(=N)/C2=N\N`, the pIC50 in test [3] is 5.70. In addition, the inhibition result in test [1] was “inactive”. Take `Cc1nc(-n2nc(-c3ccccc3)cc2-c2ccccc2)sc1C(=O)/C=C/c1ccc(Cl)c(Cl)c1`: the pIC50 in test [3] is 5.31.

For `c1ccc2sc(-c3c4ccccc4cc4ccc5ccccc5c34)cc2c1`, the pIC50 in test [2] is 5.96; in test [3], 5.22. On to `c1ccc(-c2sc(-c3ccccc3)c3c2C2CCC3C2)cc1`, for which the inhibition entry in test [1] is “inactive”. Consider `Cc1ccc(/C=C/C(=O)c2sc(-n3nc(-c4ccccc4)cc3-c3ccccc3)nc2C)cc1`, for which, in test [3], the negative logarithm of the IC50 (pIC50) was 5.49. On to `C(=C\Nc1ccc(-c2ccccc2)cc1)/C=N/c1ccc(-c2ccccc2)cc1`, for which the negative logarithm of the IC50 (pIC50) in test [3] is 5.01. In test [1], the inhibition result is “inactive”. For the molecule `COc1ccc(/C(C#N)=C\c2cc(OC)c(OC)c(OC)c2)cc1`, the pIC50 in test [2] is 4.40; in test [3], 4.70. Turning to `COc1ccc(/C(Cl)=C(/C=O)c2cc(OC)c(OC)c(OC)c2)cc1OC`, in test [3], the negative logarithm of the IC50 (pIC50) is 4.66. For the same molecule, in test [1], the inhibition entry is “inactive”. On to `CC(=O)CCNc1ccc(-c2cc(-c3ccc(N(C)C)cc3)nc3ccc4ccccc4c23)cc1`, for which, in test [1], the inhibition entry is “inactive”.

With `O=[N+]([O-])c1ccc(N/N=C/c2c(Cl)n(-c3ccccc3)c3ccccc23)c([N+](=O)[O-])c1`, the inhibition result in test [1] is “inactive”. For `Cc1ccc(-c2cn3c(nc4ccccc43)c(-c3ccccc3)n2)cc1`, the inhibition entry in test [1] is “inactive”. For `c1ccc2cc(-c3cc(-c4cc(-c5ccc6ccccc6c5)on4)no3)ccc2c1`, the inhibition entry in test [1] was “inactive”.

`CCn1c2ccccc2c2cc(N)c(/N=N/c3ccc([N+](=O)[O-])cc3)cc21`: in test [3], the pIC50 is 5.30. In test [1], the inhibition result was “inactive”. On to `Cc1cc(NCCCCCCNc2cc(C)nc3ccc(N)cc23)c2cc(N)ccc2n1`, for which the negative logarithm of the IC50 (pIC50) in test [3] was 5.72. For the same molecule, the inhibition result in test [1] is “inactive”. In the case of `Oc1ccc2ccccc2c1/N=N/c1ccc(F)cc1`, the inhibition entry in test [1] is “inactive”. Consider `Cc1ccc(-n2cc(-c3ccc(Cl)cc3)c3c2N=CN2N=C(c4cccs4)NC32)cc1` (stereo not drawn), for which the inhibition entry in test [1] is “inactive”. On to `Cc1ccc2c(c1)-c1c3c(nn1-c1ccccc1)-c1ccccc1SC3O2` (stereo not drawn), for which the inhibition entry in test [1] is “inactive”. For `COc1cc2cc(-c3cc(OC)c(OC)c(OC)c3)c3c(c2cc1OC)CNC3=O`, in test [3], the pIC50 was 5.70. Moreover, the inhibition result in test [1] is “inactive”.

For `Cc1nc(-n2nc(-c3ccccc3)cc2-c2ccccc2)sc1C(=O)/C=C/c1cccc([N+](=O)[O-])c1`, the pIC50 in test [3] was 5.19. For `COc1cc2cc(-c3cc(OC)c(OC)c(OC)c3)c3c(c2cc1OC)CNC3`, the pIC50 in test [3] was 5.57. Further, in test [1], the inhibition entry is “inactive”. On to `Cc1c2ccnc(-c3ccccc3)c2cc2c1[nH]c1ccccc12`, for which the pIC50 in test [3] was 5.68. Moreover, in test [1], the inhibition result was “inactive”. In the case of `Clc1ccc2nc3c(c(-c4ccccc4)nn3-c3ccccc3)c(-c3ccccc3)c2c1`, the inhibition entry in test [1] was “inactive”. On to `C(=C\c1c[nH]c2ccccc12)/c1nccc2ccccc12`, for which, in test [3], the pIC50 was 5.74. Besides, in test [1], the inhibition entry is “inactive”. For `Clc1ccc(-c2nc3ccc4ccccc4c3c3c2CCCC3)cc1`, in test [1], the inhibition entry is “inactive”.

As to `Cn1cc/c(=N\N=c2/ccn(C)c3ccccc23)c2ccccc21`, the pIC50 in test [3] is 5.21. For the same molecule, in test [1], the inhibition entry is “inactive”.

For the molecule `CCN(CC)CCCC(C)Nc1ccnc2cc(Cl)ccc12` (stereo not drawn) [CHLOROQUINE], the negative-log IC50 (pIC50) in test [3] was 5.82. Further, the inhibition entry in test [1] is “inactive”.

As to `COc1cc(/C=C/c2ccc(OC)c(O)c2)cc(OC)c1`, the negative logarithm of the IC50 (pIC50) in test [3] is 4.82. Turning to `CN(C)c1ccc(NN=C2SC(=N\c3ccccc3)/C(=N/c3ccccc3)S2)cc1`, in test [1], the inhibition entry is “inactive”.

As to `Cc1nc(-n2nc(-c3ccccc3)cc2-c2ccccc2)sc1C(=O)/C=C/c1ccccc1`, the pIC50 in test [3] is 5.24. In the case of `Cc1ccc(C(=N)c2ccccc2Cc2cccc3ccccc23)c2ccccc12`, the inhibition result in test [1] was “inactive”.

For `Fc1ccccc1C1CC(c2ccc3ccccc3c2)=Nc2ccccc2S1` (stereo not drawn), the negative logarithm of the IC50 (pIC50) in test [2] was 6.41. For the molecule `C1=c2ccccc2=C2C(=C(c3ccccc3)C(c3ccccc3)=NN2c2ccccc2)S1`, in test [1], the inhibition result is “inactive”.

Consider `N=C(N)c1ccc(/N=N/c2cc(/N=N/c3ccccc3)ccc2O)cc1`, for which, in test [3], the pIC50 was 5.74. For the same molecule, in test [1], the inhibition result is “inactive”. With `CCN(CC)CCNC(=O)c1c2c(nc3ccccc13)CCCC2`, the inhibition entry in test [1] was “inactive”.

`c1ccc2c(-c3ccsc3)c3c(ccc4ccccc43)cc2c1`: the pIC50 in test [3] is 5.29. Also, in test [1], the inhibition result was “inactive”. For `c1ccc2c3ccn4ccc5c6ccccc6[nH]c5c4c-3nc2c1`, the negative-log IC50 (pIC50) in test [3] was 5.54. Also, the inhibition result in test [1] was “inactive”. Regarding `O=[N+]([O-])c1ccc(-n2nc3ccc4c(no[n+]4[O-])c3n2)cc1`, the inhibition result in test [1] was “inactive”. `CN(C)c1ccc(/C=c2\c3cc([N+](=O)[O-])ccc3n3c2cc(-c2ccccc2)[n+]3C)cc1`: in test [3], the pIC50 was 5.30. Further, in test [1], the inhibition entry is “inactive”. Consider `Cn1c2ccccc2c2c3ccc[n+](C)c3ccc21`, for which the pIC50 in test [3] was 5.26. In addition, the inhibition result in test [1] is “inactive”.

As to `N=C(N)c1ccc(/N=N/c2cc(/C=C/c3ccccc3)ccc2O)cc1`, the negative-log IC50 (pIC50) in test [3] is 5.85. Besides, the inhibition entry in test [1] is “inactive”. Consider `CN(C)c1ccc(/C=c2\c3ccccc3n3c2cc(-c2ccccc2)[n+]3C)cc1`, for which the pIC50 in test [3] was 5.77. The inhibition result in test [1] is “inactive”. The like results for `Oc1cc(O)c2ccccc2c1` were, in that order, 5.48 and “inactive”. For the molecule `Clc1ccc(-c2cn3c(nc4ccccc43)c(-c3ccccc3)n2)cc1`, the inhibition entry in test [1] was “inactive”. For the molecule `Oc1cc(O)cc(-c2c(O)cc(O)cc2O)c1`, the negative-log IC50 (pIC50) in test [2] was 5.00. `CC(/C=C/C(=O)c1sc(-n2nc(-c3ccccc3)cc2-c2ccccc2)nc1C)=C\c1ccccc1`: the pIC50 in test [3] was 5.42. `Oc1ccc(-c2ccc(O)cc2O)c(O)c1`: the inhibition entry in test [1] is “inactive”. Same read-out and setting: for `C/C(=N\NC(=O)c1ccncc1)c1sc(-n2nc(-c3ccccc3)cc2-c2ccccc2)nc1C` the value was “inactive”.

On to `O=C(NCCc1ccccc1)c1ccc2ccccc2n1`, for which the inhibition entry in test [1] was “inactive”.

In the case of `Fc1ccc2c(c1)SC1Oc3ccccc3-c3c1c-2nn3-c1ccccc1` (stereo not drawn), in test [1], the inhibition entry was “inactive”.
